Test results published in publication PMC5983305, “Bioactive Pyridone Alkaloids from a Deep-Sea-Derived Fungus Arthrinium sp. UJNMF0008” (Marine Drugs, 2018).

Experiments:
[1] = tested on: Mycobacterium smegmatis ATCC 607; assay: Antimicrobial assay, liquid growth inhibition in 96-well microplates; type: cell-based; conditions: Mycolicibacterium smegmatis; Mycobacterium smegmatis ATCC607; OD 600 nm after 12 h at 37 °C; read-out: Antibacterial activity IC50, MS
Procedure: (§1) The antimicrobial activity was assayed against the Gram-positive bacterial strains Mycobacterium smegmatis ATCC 607 and Staphylococcus aureus ATCC 25923, Gram-negative Escherichia coli ATCC 8739 and Pseudomonas aeruginosa ATCC 9027 and yeast Candida albicans ATCC10231 by liquid growth inhibition in 96-well microplates. Briefly, precultures of the tested microorganisms were made by inoculating 10 mL of medium (LB medium for bacteria and YM medium for fungus) and incubated for 24 h at 37 °C for bacteria or 48 h at 28 °C for fungus. Then, the cell density was adjusted to 10^4−10^5 cfu mL^−1 by the corresponding broth. An aliquot of 200 μL of the microbial suspension was distributed in each well containing 2-fold serial dilution of the tested compounds. The plate was incubated at 37 °C for 12 h for the bacteria or at 28 °C for 48 h for the fungus, and the optical density of each well was measured at 600 nm spectrophotometrically. IC50 values were defined as the concentration of a compound resulting in a 50% decrease in the number of microbial cultures compared to the blank control. The experiment was run in three replicates.

[2] = tested on: Staphylococcus aureus ATCC 25923; assay: as above; type: cell-based; conditions: Staphylococcus aureus ATCC25923; OD 600 nm after 12 h at 37 °C; read-out: Antibacterial activity IC50, SA
Procedure: as §1

| SMILES | IC50 [1] | IC50 [2] |
| --- | --- | --- |
| CO/N=C(\C(=O)N[C@@H]1C(=O)N2C(C(=O)O)=C(CSc3nc(=O)c(=O)[nH]n3C)CS[C@H]12)c1csc(N)n1 [Ceftriaxone sodium, reference compound] | < 1 µM | < 1 µM |
| CC1CCC2C(C=CC(C)C2C(=O)c2c3c(c[nH]c2=O)C2(O)CCC(O)C(O)C2O3)C1 (stereo not drawn) [Compound 3, Arthpyrone F] | 11.4 µM | 8.97 µM |
| C[C@@H]1CC[C@H]2[C@H](C(=O)c3c(=O)[nH]cc4c5c(oc34)[C@H](O)[C@H](O)CC5)[C@H](C)C=C[C@@H]2C1 [Compound 4, Arthpyrone G] | > 50 µM | 42.8 µM |
| CO[C@H]1[C@H](O)CC[C@](O)(c2c[nH]c(=O)c(C(=O)[C@H]3[C@@H]4CC[C@@H](C)C[C@H]4C=C[C@H]3C)c2O)[C@@H]1O [Compound 5, Arthpyrone H] | 19.4 µM | 8.37 µM |
| CO[C@]1(c2c[nH]c(=O)c(C(=O)[C@H]3[C@@H]4CC[C@@H](C)C[C@H]4C=C[C@H]3C)c2O)CC[C@@H](O)[C@H](O)[C@H]1O [Compound 6, Arthpyrone I] | 35.3 µM | 14.1 µM |
| CC1CCC2C(C=CC(C)C2C(=O)c2c(O)c(C3(O)CCC(O)C4OC43)c[nH]c2=O)C1 (stereo not drawn) [Compound 9, apiosporamide] | 2.2 µM | 1.66 µM |
